Measurements: the CheMixHub ionic liquid set

Test: xn = mol fraction of the nth substance listed

CC[n+]1ccn(C)c1.N#C[N-]C#N + CCO
viscosity [mPa·s]
Settings	298.15 K	303.15 K	308.15 K	313.15 K	318.15 K	323.15 K	328.15 K	343.15 K
100 kPa, x1 = 0.0997	1.85	1.71	1.56	1.44	1.33	1.23	–	–
100 kPa, x1 = 0.196	2.7	2.47	2.25	2.07	1.9	1.75	–	–
100 kPa, x1 = 0.3001	3.66	3.31	3.02	2.76	2.53	2.33	–	–
100 kPa, x1 = 0.3945	4.62	4.16	3.78	3.45	3.16	2.9	–	–
100 kPa, x1 = 0.4997	5.82	5.23	4.72	4.29	3.92	3.59	–	–
100 kPa, x1 = 0.5993	7.11	6.35	5.71	5.16	4.7	4.29	–	–
100 kPa, x1 = 0.7013	8.69	7.71	6.89	6.19	5.61	5.1	–	–
100 kPa, x1 = 0.8014	10.45	9.21	8.17	7.3	6.57	5.95	–	–
100 kPa, x1 = 0.8929	11.97	10.48	9.25	8.23	7.37	6.65	–	–
100 kPa, x1 = 1	13.09	11.39	10	8.86	7.92	7.13	–	–
101 kPa, x2 = 0	–	–	–	10.07	–	–	7.26	–
101 kPa, x2 = 0.1981	–	–	–	–	–	–	–	4.25
101 kPa, x2 = 0.3596	–	–	–	5.68	–	–	4.29	–
101 kPa, x2 = 0.6028	4.42	–	–	–	–	–	–	–
101 kPa, x2 = 0.7678	2.72	–	–	–	–	–	–	–
